Measured values: article PMC9751290, “Design, synthesis, in vitro, in silico, and SAR studies of flavone analogs towards anti-dengue activity” (Scientific Reports, 2022)
Entries after “also recorded” stand apart in the source; their conditions may differ. Like-named read-outs stand apart in the source and are kept apart here.

Key:
DENV2 NGC = test: Screening antiviral efficacy: viral inhibition at 10 µM in DENV2-infected LLC/MK2 cells, plaque titration; type: cell-based, DENV2 (New Guinea C strain); conditions: for inhibition at 10 µM: Dengue virus
Procedure: The flavone analogs were preliminary screened for their viral inhibitory activity against DENV2 NGC (accession number NC_001474.2) in a LLC/MK2 (ATCC CCL-7™) cell-based system at the final concentration of 10 μM. […] On the other hand, the acylation of the hydroxy groups on the A-ring yielded mixed results.
LLC/MK2 cells (5 × 10^4) were seeded in 24-well plate and incubate at 37 °C under 5% CO2 overnight. Cells were infected with DENV2 NGC at a multiplicity of infection (M.O.I. of 0.1) and compounds at 10 µM were added and DMSO at 1% was used as control. Cultured plates were incubated for 1 h with gentle rocking every 15 min. Cells were washed with PBS, MEM supplemented with 1% FBS, 100 I.U./mL penicillin, and 100 µg/mL streptomycin, 10 mM HEPES was added in a presence of a compound at 10 µM. Cells were incubated at 37 °C with 5% CO2 for 3 days. Supernatants were collected to determine viral titers by plaque titration assay as previously described. The selected compounds were further analyzed for an effective concentration (EC50).

[1] = Cellular toxicity in LLC/MK2 cells (MTS assay); type: cell-based; conditions: rhesus monkey
Procedure: Cytotoxicity of the compounds was also accessed at the concentration of 10 µM in parallel with the viral inhibition screening. LLC/MK2 cells (1 × 10^4) were seeded in 96-well plate and incubated at 37 °C under 5% CO2 overnight; compounds were added after 24 h, and then incubated for 2 days. DMSO at 1% was used as mock treatment. Cytotoxicity was measured using CellTiter 96® Aqueous One Solution Cell Proliferation Assay (MTS) kit (Promega, Wisconsin-Madison, WI, USA) according to the manufacturer’s instruction and analyzed by EnSight Multimode Plate Reader spectrophotometry at A450nm. (Perkin Elmer, Waltham, MA, USA).

DENV2 [2] = tested on: DENV2; design: method as in PMID 23140177, PMID 29057920; conditions: data according to literature (footnote f); read-out: EC50 (50% effective concentration against DENV2); cited from earlier work
[3] = tested on: DENV2 replication in Vero cells; design: method as in PMID 31441148, PMID 23140177; conditions: cited from earlier work
DENV2 [4] = test: Antiviral efficacy (EC50) against DENV2 in LLC/MK2 cells, plaque titration; type: cell-based, DENV2 (New Guinea C strain); conditions: for EC50: Dengue virus, DENV2, LLC/MK2 cells, three independent experiments, read-out: EC50 (50% effective concentration against DENV2); for fold increase in activity compared with 8-bromobaicalein 5f / fold more active than the original baicalein 5a: EC50 against DENV2
Procedure: LLC/MK2 (ATCC® CCL-7), and C6/36 (ATCC® CRL-1660) cell lines were propagated and maintained as previously described[18],[29],[31]. Effective concentration (EC50) of the compounds against the DENV2 were tested using LLC/MK2 cells[18],[29]. Briefly, cells were seeded overnight and infected with each virus at the multiplicity of infection (M.O.I.) of 0.1 for 1 h. The compound was added during and after infection, and cells were incubated for 72 h. Supernatants were collected for plaque titration. EC50 results were means and standard errors of three independent experiments.

[5] = Cellular toxicity in LLC/MK2 cells (MTS assay); type: cell-based; conditions: rhesus monkey; remark: listed apart in the source
dengue and Zika virus = conditions: cited from earlier work
dengue virus = tested on: dengue virus; design: method as in PMID 28389141; conditions: mice administered with luteolin; cited from earlier work
[6] = 10 μM, DENV2 NGC-infected LLC/MK2 cells, NA = not active, read-out: %Inhibition (%viral inhibition against DENV2)
[7] = DENV2, LLC-MK2, read-out: %Inhibition (%viral inhibition against DENV2)
[8] = 10 μM, read-out: %Viability in LLC/MK2 cell

Structure (SMILES) | inhibition at 10 µM (DENV2 NGC; [6]) [%] | viability at 2 days, 10 µM [1] [%] | further results
O=c1cc(-c2ccccc2)oc2ccc(O)cc12 [1a, 6-hydroxyflavone] | 90 | 69.5 ± 14.3 | –
COc1ccc2oc(-c3ccccc3)cc(=O)c2c1 [1b, 6-Methoxyflavone] | – | 95.2 ± 8.12 | inhibition at 10 µM (DENV2 NGC; [7]): 77%
CCC(=O)Oc1ccc2oc(-c3ccccc3)cc(=O)c2c1 [1c, 6-Propionoxyflavone] | 73 | 89.18 ± 0.78 | –
O=c1cc(-c2ccccc2)oc2cc(O)ccc12 [2a, 7-hydroxyflavone] | 37.5 | – | viability at 2 days, 10 µM [1, 8]: 122 ± 7.21%
COc1ccc2c(=O)cc(-c3ccccc3)oc2c1 [2b, 7-Methoxyflavone] | – | 84.5 ± 3.34 | inhibition at 10 µM (DENV2 NGC; [7]): 37.5%
CCC(=O)Oc1ccc2c(=O)cc(-c3ccccc3)oc2c1 [2c, 7-Propionoxyflavone] | 37.5 | 115 ± 1.55 | –
O=c1cc(-c2ccccc2)oc2c(O)c(O)ccc12 [3a, 7,8-dihydroxyflavone] | – | – | inhibition at 10 µM (DENV2 NGC; [7]): 58.3%; viability at 2 days, 10 µM [1, 8]: 79.4 ± 3.2%
O=c1cc(-c2ccccc2)oc2c3c(ccc12)OCO3 [3b, 7,8-Dioxoloflavone] | – | 96.6 ± 1.01 | –
O=c1cc(-c2ccccc2)oc2cc(O)cc(O)c12 [4a, chrysin] | 16.7 | 84.8 ± 2.03 | –
COc1cc(O)c2c(=O)cc(-c3ccccc3)oc2c1 [4b, 5-Hydroxy-7-methoxyflavone] | 16.7 | 97.5 ± 1 | –
O=c1cc(-c2ccccc2)oc2cc(OCc3ccccc3)cc(O)c12 [4c, 7-Benzyloxy-5-hydroxyflavone] | – | 86.1 ± 3.05 | –
O=c1cc(-c2ccccc2)oc2c(Br)c(O)c(Br)c(O)c12 [4d, 6,8-Dibromo-5,7-dihydroxyflavone] | – | 101.1 ± 0.44 | inhibition at 10 µM (DENV2 NGC; [7]): 83%; EC50 (DENV2 [2]): 1470 ± 860 nM
O=c1cc(-c2ccccc2)oc2c([N+](=O)[O-])c(O)cc(O)c12 [4e, 5,7-Dihydroxy-8-nitroflavone] | – | – | inhibition at 10 µM (DENV2 NGC; [7]): 33.3%; viability at 2 days, 10 µM [1, 8]: 52.5 ± 2.59%
Nc1c(O)cc(O)c2c(=O)cc(-c3ccccc3)oc12 [4f, 8-Amino-5,7-dihydroxyflavone] | – | 93.4 ± 3.29 | –
O=c1cc(-c2ccccc2)oc2cc(O)c(O)c(O)c12 [5a, baicalein] | – | – | inhibition at 10 µM (DENV2 NGC; [7]): 75%; viability at 2 days, 10 µM [1, 8]: 92.9 ± 1.44%; EC50 (DENV2 [2]): 23900 nM; IC50 [3]: 23900 nM; selectivity index (SI) [3]: 17.8
COc1cc2oc(-c3ccccc3)cc(=O)c2c(O)c1OC [5b, 5-Hydroxy-6,7-dimethoxyflavone] | 80 | 97.5 ± 2.47 | –
CC(=O)Oc1cc2oc(-c3ccccc3)cc(=O)c2c(OC(C)=O)c1OC(C)=O [5c, 5,6,7-Triacetoxyflavone] | – | – | inhibition at 10 µM (DENV2 NGC; [7]): 100%; EC50 (DENV2 [4]): 410 ± 560 nM; viability at 2 days, 10 µM [1, 8]: 107 ± 7.34%

Structure (SMILES) | inhibition at 10 µM (DENV2 NGC; [6]) [%] | viability at 2 days, 10 µM [1] [%] | further results
CCC(=O)Oc1cc2oc(-c3ccccc3)cc(=O)c2c(OC(=O)CC)c1OC(=O)CC [5d, 5,6,7-Tripropionoxyflavone] | – | – | inhibition at 10 µM (DENV2 NGC; [7]): 90%; EC50 (DENV2 [4]): 70 ± 15 nM; fold increase in activity compared with 8-bromobaicalein 5f (DENV2 [4]): over tenfold; also recorded: more than tenfold; fold more active than the original baicalein 5a (DENV2 [4]): over 300 fold; viability at 2 days, 10 µM [1, 8]: 83.8 ± 2.61%; CC50 at 2 days ([5]; LLC/MK2 cells, read-out: CC50): > 100000 nM
CCC(=O)Oc1cc2oc(-c3ccccc3)cc(=O)c2c(O)c1OC(=O)CC [5e, 5-Hydroxy-6,7-dipropionoxyflavone] | 91.7 | 89.6 ± 5.95 | EC50 (DENV2 [4]): 68 ± 40 nM; fold increase in activity compared with 8-bromobaicalein 5f (DENV2 [4]): over tenfold; also recorded: more than tenfold; fold more active than the original baicalein 5a (DENV2 [4]): over 300 fold; melting point: 132 to 134 °C; CC50 at 2 days [5]: > 100000 nM
O=c1cc(-c2ccccc2)oc2c(Br)c(O)c(O)c(O)c12 [5f, 8-Bromo-5,6,7-trihydroxyflavone] | – | 73.4 ± 14.8 | inhibition at 10 µM (DENV2 NGC; [7]): 100%; EC50 (DENV2 [2]): 880 ± 140 nM
CC(=O)Oc1c(OC(C)=O)c(OC(C)=O)c2c(=O)cc(-c3ccccc3)oc2c1Br [5g, 5,6,7-Triacetoxy-8-bromoflavone] | 100 | 50.9 ± 3.22 | EC50 (DENV2 [4]): 260 ± 140 nM
CCC(=O)Oc1c(OC(=O)CC)c(OC(=O)CC)c2c(=O)cc(-c3ccccc3)oc2c1Br [5h, 8-Bromo-5,6,7-tripropionoxyflavone] | – | 84.5 ± 6.56 | %Inhibition (%viral inhibition against DENV2) (DENV2 NGC; 10 μM, DENV2 NGC-infected LLC/MK2 cells, NA = not active): inactive; melting point: 113 to 115 °C
COc1cc2oc(-c3ccccc3)cc(=O)c2c(OC)c1OC [5i, 5,6,7-Trimethoxyflavone] | 44.4 | 96.8 ± 11.9 | –
COc1cc2oc(-c3ccc(Br)cc3)cc(=O)c2c(OC)c1OC [5j, 4′-Bromo-5,6,7-trimethoxylflavone] | 70.4 | 101 ± 11.1 | –
COc1cc2oc(-c3ccc([N+](=O)[O-])cc3)cc(=O)c2c(OC)c1OC [5k, 5,6,7-Trimethoxy-4′-nitroflavone] | 70 | 101 ± 1.97 | –
COc1cc2oc(-c3ccc(N)cc3)cc(=O)c2c(OC)c1OC [5l, 4′-Amino-5,6,7-trimethoxyflavone] | 62 | 93 ± 2.36 | –
O=c1cc(-c2ccc(Br)cc2)oc2cc(O)c(O)c(O)c12 [5m, 4′-Bromo-5,6,7-trihydroxyflavone] | 100 | 90 ± 6.61 | EC50 (DENV2 [4]): 520 ± 120 nM
O=c1cc(-c2ccc([N+](=O)[O-])cc2)oc2cc(O)c(O)c(O)c12 [5n, 5,6,7-Trihydroxy-4′-nitroflavone] | 100 | 78.5 ± 9.87 | EC50 (DENV2 [4]): 4300 ± 560 nM
Nc1ccc(-c2cc(=O)c3c(O)c(O)c(O)cc3o2)cc1 [5o, 4′-Amino-5,6,7-trihydroxyflavone] | – | 109 ± 2.53 | –
COc1cc2oc(-c3ccc(Br)cc3)cc(=O)c2c(O)c1OC [5p, 4′-Bromo-5-hydroxy-6,7-dimethoxyflavone] | 64.8 | 96.8 ± 5.28 | –
COc1cc2oc(-c3ccc([N+](=O)[O-])cc3)cc(=O)c2c(O)c1OC [5q, 5-Hydroxy-6,7-dimethoxy-4′-nitroflavone] | 98.2 | 84.7 ± 5.07 | EC50 (DENV2 [4]): 4520 ± 760 nM; melting point: 145 to 150 °C
COc1cc2oc(-c3ccc([N+](=O)[O-])cc3)cc(=O)c2c(O)c1O [5r, 5,6-Dihydroxy-7-methoxy-4′-nitroflavone] | 22.2 | 91.6 ± 0.89 | melting point: 174 to 178 °C
CCCCCCCCCCCCOc1c(Br)c(O)c2c(=O)cc(-c3ccccc3)oc2c1Br [IV] | – | – | EC50 (dengue and Zika virus): 4170 nM
O=c1cc(-c2ccc(O)c(O)c2)oc2cc(O)cc(O)c12 [luteolin] | – | – | reduction of the virus load (dengue virus): tenfold reduction
